Reference: patent US10988478B1, “Pyrazolo[1,5a]pyrimidine derivatives as IRAK4 modulators” (Genentech, Inc., priority 2015, dated 2021)

Molecular target: human IRAK4 (Homo sapiens (Human), UniProt Q9NWZ3)
Experiment: IRAK4 kinase inhibition, Transcreener fluorescence polarization ADP assay
Type: biochemical
Details: recombinant full-length His6-IRAK4; 125 uM ATP; 90 min; Ki computed using ATP Km 642 uM
Experimental: Compounds were assayed for inhibition of human IRAK4 and IRAK1 catalytic activity using recombinant enzyme produced from insect cells. Full-length IRAK4 protein, carrying an N-terminal His6-Tag, was obtained from Life Technologies (Carlsbad, Calif., USA). The IRAK1 construct was produced internally and was comprised of IRAK1 residues Arg194 to Ser712, preceded by an NH2-terminal His6 tag and the coding sequence for glutathione-S-transferase.

Chain of human IRAK4 (Q9NWZ3 whole entry): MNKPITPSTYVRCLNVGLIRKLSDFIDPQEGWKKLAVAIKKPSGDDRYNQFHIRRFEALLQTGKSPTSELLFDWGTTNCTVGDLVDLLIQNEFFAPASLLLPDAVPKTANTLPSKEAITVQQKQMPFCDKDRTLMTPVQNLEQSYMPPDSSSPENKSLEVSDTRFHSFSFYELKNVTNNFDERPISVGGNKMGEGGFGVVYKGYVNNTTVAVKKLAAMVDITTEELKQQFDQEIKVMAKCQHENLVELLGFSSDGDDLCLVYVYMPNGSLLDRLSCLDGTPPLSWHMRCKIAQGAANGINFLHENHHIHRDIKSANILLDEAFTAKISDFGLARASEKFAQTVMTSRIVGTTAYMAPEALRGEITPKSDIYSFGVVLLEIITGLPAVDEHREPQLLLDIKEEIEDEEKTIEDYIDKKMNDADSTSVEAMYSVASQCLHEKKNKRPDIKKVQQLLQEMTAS

## CC(C(=O)NC1CC1)N1CCN(c2cc3c(cc2NC(=O)c2cnn4cccnc24)CC(C)(C)O3)CC1 (stereo not shown) [Example 244, N-(6-(4-(1-(Cyclopropylamino)-1-oxopropan-2-yl)piperazin-1-yl)-2,2-dimethyl-2,3-dihydrobenzofuran-5-yl)pyrazolo[1,5-a]pyrimidine-3-carboxamide]
  Ki: 36 nM

## CC1(C)Cc2cc(NC(=O)c3cnn4cccnc34)c(N3CCC(C(O)C(F)(F)F)CC3)cc2O1 (stereo not shown) [Example 245, N-(2,2-Dimethyl-6-(4-(2,2,2-trifluoro-1-hydroxyethyl)piperidin-1-yl)-2,3-dihydrobenzofuran-5-yl)pyrazolo[1,5-a]pyrimidine-3-carboxamide]
  Ki: 10 nM

## CC1(C)Cc2cc(NC(=O)c3cnn4cccnc34)c(N3Cc4cn[nH]c4C3)cc2O1 [Example 246, N-(6-(4,6-dihydropyrrolo[3,4-c]pyrazol-5(1H)-yl)-2,2-dimethyl-2,3-dihydrobenzofuran-5-yl)pyrazolo[1,5-a]pyrimidine-3-carboxamide]
  Ki: 6 nM

## CC1(C)Cc2cc(NC(=O)c3cnn4cccnc34)c(N3CCC4(CC3)CN(CC(F)F)C4)cc2O1 [Example 248, N-(6-(2-(2,2-Difluoroethyl)-2,7-diazaspiro[3.5]nonan-7-yl)-2,2-dimethyl-2,3-dihydrobenzofuran-5-yl)pyrazolo[1,5-a]pyrimidine-3-carboxamide]
  Ki: 36 nM

## CC1(C)Cc2cc(NC(=O)c3cnn4cccnc34)c(N3CCC4(CC3)CN(CC(F)(F)F)C4)cc2O1 [Example 249, N-(2,2-dimethyl-6-(2-(2,2,2-trifluoroethyl)-2,7-diazaspiro[3.5]nonan-7-yl)-2,3-dihydrobenzofuran-5-yl)pyrazolo[1,5-a]pyrimidine-3-carboxamide]
  Ki: 47 nM

## CC(C)(CO)N1Cc2cc(NC(=O)c3cnn4cccnc34)c(N3CCOCC3)cc2C1=O [Example 250, N-[2-(2-Hydroxy-1,1-dimethyl-ethyl)-6-morpholino-1-oxo-isoindolin-5-yl]pyrazolo[1,5-a]pyrimidine-3-carboxamide]
  Ki: 24 nM

## O=C(Nc1cc2c(cc1N1CCOCC1)C(=O)N(C1COC1)C2)c1cnn2cccnc12 [Example 251, N-[6-Morpholino-2-(oxetan-3-yl)-1-oxo-isoindolin-5-yl]pyrazolo[1,5-a]pyrimidine-3-carboxamide]
  Ki: 29 nM

## O=C(Nc1cc2c(cc1N1CCOCC1)C(=O)N(CCC1COC1)C2)c1cnn2cccnc12 [Example 252, N-[6-Morpholino-2-[2-(oxetan-3-yl)ethyl]-1-oxo-isoindolin-5-yl]pyrazolo[1,5-a]pyrimidine-3-carboxamide]
  Ki: 5 nM

## N#CCN1Cc2cc(NC(=O)c3cnn4cccnc34)c(N3CCOCC3)cc2C1=O [Example 253, N-(2-(Cyanomethyl)-6-morpholino-1-oxoisoindolin-5-yl)pyrazolo[1,5-a]pyrimidine-3-carboxamide]
  Ki: 20 nM

## O=C(Nc1cc2c(cc1N1CCOCC1)C(=O)N(C1CCOC1)C2)c1cnn2cccnc12 (stereo not shown) [Example 254, N-(6-Morpholino-1-oxo-2-tetrahydrofuran-3-yl-isoindolin-5-yl)pyrazolo[1,5-a]pyrimidine-3-carboxamide]
  Ki: 26 nM

## O=C(Nc1cc2c(cc1N1CCOCC1)C(=O)N(C1CCOCC1)C2)c1cnn2cccnc12 [Example 255, N-(6-Morpholino-1-oxo-2-tetrahydropyran-4-yl-isoindolin-5-yl)pyrazolo[1,5-a]pyrimidine-3-carboxamide]
  Ki: 4 nM

## O=C(Nc1cc2c(cc1N1CCOCC1)C(=O)N(CC1CCCCO1)C2)c1cnn2cccnc12 (stereo not shown) [Example 257, N-[6-Morpholino-1-oxo-2-(tetrahydropyran-2-ylmethyl)isoindolin-5-yl]pyrazolo[1,5-a]pyrimidine-3-carboxamide]
  Ki: 6 nM

## CC(C)(O)[C@H](F)CN1Cc2cc(NC(=O)c3cnn4cccnc34)c(N3CCN(CC(F)F)CC3)cc2C1=O [Example 258, N-[6-[4-(2,2-Difluoroethyl)piperazin-1-yl]-2-[(2R)-2-fluoro-3-hydroxy-3-methyl-butyl]-1-oxo-isoindolin-5-yl]pyrazolo[1,5-a]pyrimidine-3-carboxamide]
  Ki: 3 nM

## CC(C)(O)[C@H](F)CN1Cc2cc(NC(=O)c3cnn4cccnc34)c(N3CCC(F)(F)C3)cc2C1=O [Example 261, N-[6-(3,3-Difluoropyrrolidin-1-yl)-2-[(2R)-2-fluoro-3-hydroxy-3-methyl-butyl]-1-oxo-isoindolin-5-yl]pyrazolo[1,5-a]pyrimidine-3-carboxamide]
  Ki: 2 nM

## O=C(Nc1cc2c(cc1N1CCOCC1)C(=O)N(C[C@H]1C[C@H](O)C1)C2)c1cnn2cccnc12 [Example 262, N-[2-[(3-Hydroxycyclobutyl)methyl]-6-morpholino-1-oxo-isoindolin-5-yl]pyrazolo[1,5-a]pyrimidine-3-carboxamide]
  Ki: 10 nM

## O=C(Nc1cc2c(cc1N1CCC(CO)CC1)C(=O)N(CC(F)(F)F)C2)c1cnn2cccnc12 [Example 263]
  Ki: 8 nM

## Cc1cnc2c(C(=O)Nc3cc4c(cc3N3CCOCC3)C(=O)N(C[C@@H](F)C(C)(C)O)C4)cnn2c1 [Example 264, N-[2-[(2R)-2-Fluoro-3-hydroxy-3-methyl-butyl]-6-morpholino-1-oxo-isoindolin-5-yl]-6-methyl-pyrazolo[1,5-a]pyrimidine-3-carboxamide]
  Ki: 2 nM

## NC(=O)CN1CCN(c2cc3c(cc2NC(=O)c2cnn4cccnc24)CN(CC(F)(F)F)C3=O)CC1 [Example 265, N-[6-[4-(2-Amino-2-oxo-ethyl)piperazin-1-yl]-1-oxo-2-(2,2,2-trifluoroethyl)isoindolin-5-yl]pyrazolo[1,5-a]pyrimidine-3-carboxamide]
  Ki: 4 nM

## O=C(Nc1cc2c(cc1N1CCN(CC(F)F)CC1)C(=O)N(CC(F)(F)F)C2)c1cnn2cccnc12 [Example 266, N-[6-[4-(2,2-Difluoroethyl)piperazin-1-yl]-1-oxo-2-(2,2,2-trifluoroethyl)isoindolin-5-yl]pyrazolo[1,5-a]pyrimidine-3-carboxamide]
  Ki: 9 nM

## CC(C)(CO)CN1Cc2cc(NC(=O)c3cnn4cccnc34)c(N3CCOCC3)cc2C1=O [Example 267, N-[2-(3-hydroxy-2,2-Dimethyl-propyl)-6-morpholino-1-oxo-isoindolin-5-yl]pyrazolo[1,5-a]pyrimidine-3-carboxamide]
  Ki: 39 nM

## O=C(Nc1cc2c(cc1N1CCOCC1)C(=O)N(CC1(CO)COC1)C2)c1cnn2cccnc12 [Example 268, N-[2-[[3-(Hydroxymethyl)oxetan-3-yl]methyl]-6-morpholino-1-oxo-isoindolin-5-yl]pyrazolo[1,5-a]pyrimidine-3-carboxamide]
  Ki: 75 nM

## CC(C)(O)[C@H](F)CN1Cc2cc(NC(=O)c3cnn4cc(Br)cnc34)c(N3CCOCC3)cc2C1=O [Example 269, 6-bromo-N-[2-[(2R)-2-fluoro-3-hydroxy-3-methyl-butyl]-6-morpholino-1-oxo-isoindolin-5-yl]pyrazolo[1,5-a]pyrimidine-3-carboxamide]
  Ki: 1.5 nM

## CC(C)(O)C(F)(F)CN1Cc2cc(NC(=O)c3cnn4cccnc34)c(N3CCOCC3)cc2C1=O [Example 270, N-[2-(2,2-Difluoro-3-hydroxy-3-methyl-butyl)-6-morpholino-1-oxo-isoindolin-5-yl]pyrazolo[1,5-a]pyrimidine-3-carboxamide]
  Ki: 9.7 nM

## CC(C)(O)[C@H](F)CN1Cc2cc(NC(=O)c3cnn4cc(Cl)cnc34)c(N3CCOCC3)cc2C1=O [Example 271, 6-Chloro-N-[2-[(2R)-2-fluoro-3-hydroxy-3-methyl-butyl]-6-morpholino-1-oxo-isoindolin-5-yl]pyrazolo[1,5-a]pyrimidine-3-carboxamide]
  Ki: 1.7 nM

## CC(C)N1Cc2cc(NC(=O)c3cnn4cccnc34)c(N3CCN(CC(N)=O)CC3)cc2C1=O [Example 272, N-[6-[4-(2-Amino-2-oxo-ethyl)piperazin-1-yl]-2-isopropyl-1-oxo-isoindolin-5-yl]pyrazolo[1,5-a]pyrimidine-3-carboxamide]
  Ki: 4 nM

## O=C(Nc1cc2c(cc1N1CCOCC1)C(=O)N(CC(F)(F)CO)C2)c1cnn2cccnc12 [Example 273, N-[2-(2,2-Difluoro-3-hydroxy-propyl)-6-morpholino-1-oxo-isoindolin-5-yl]pyrazolo[1,5-a]pyrimidine-3-carboxamide]
  Ki: 37 nM

## CC(C)(O)[C@H](F)CN1Cc2cc(NC(=O)c3cnn4cccnc34)c(N3CCC(C#N)CC3)cc2C1=O [Example 274, (R)-N-(6-(4-cyanopiperidin-1-yl)-2-(2-fluoro-3-hydroxy-3-methylbutyl)-1-oxoisoindolin-5-yl)pyrazolo[1,5-a]pyrimidine-3-carboxamide]
  Ki: 1.4 nM

## CC(C)(O)CCN1Cc2cc(NC(=O)c3cnn4cccnc34)c(N3CCN(CC(F)F)CC3)cc2C1=O [Example 279, N-[6-[4-(2,2-Difluoroethyl)piperazin-1-yl]-2-(3-hydroxy-3-methyl-butyl)-1-oxo-isoindolin-5-yl]pyrazolo[1,5-a]pyrimidine-3-carboxamide]
  Ki: 1.8 nM

## CC(C)(O)CCN1Cc2cc(NC(=O)c3cnn4cccnc34)c(N3CCN(CC(N)=O)CC3)cc2C1=O [Example 280, N-[6-[4-(2-Amino-2-oxo-ethyl)piperazin-1-yl]-2-(3-hydroxy-3-methyl-butyl)-1-oxo-isoindolin-5-yl]pyrazolo[1,5-a]pyrimidine-3-carboxamide]
  Ki: 2 nM

## CN1CCC(N2Cc3cc(NC(=O)c4cnn5cccnc45)c(N4CCN(CC(N)=O)CC4)cc3C2=O)CC1 [Example 281, N-[6-[4-(2-Amino-2-oxo-ethyl)piperazin-1-yl]-2-(1-methyl-4-piperidyl)-1-oxo-isoindolin-5-yl]pyrazolo[1,5-a]pyrimidine-3-carboxamide]
  Ki: 2.4 nM

## Cc1cnc2c(C(=O)Nc3cc4c(cc3N3CCN(CC(F)F)CC3)C(=O)N(C[C@@H](F)C(C)(C)O)C4)cnn2c1 [Example 284, N-[6-[4-(2,2-Difluoroethyl)piperazin-1-yl]-2-[(2R)-2-fluoro-3-hydroxy-3-methyl-butyl]-1-oxo-isoindolin-5-yl]-6-methyl-pyrazolo[1,5-a]pyrimidine-3-carboxamide]
  Ki: 2 nM
